Test results reported in patent US20260306503A1, “(S)-2-HYDROXY-6-((4-(2-(2-HYDROXYETHYL)NICOTINOYL)MORPHOLIN-3-YL)METHOXY)BENZALDEHYD FOR USE IN THE TREATMENT OF SICKLE CELL DISEASE” (Global Blood Therapeutics, Inc., priority 2023, published 2026).

Target: T1, hemoglobin (Homo sapiens, UniProt P69905)
T1 construct: whole blood ex vivo
Assay: Hb occupancy calculated from preliminary PK analysis of whole blood samples
Type: in vivo
Settings: Patient A, 300 mg QD 14 days then 200 mg QD
Method: In some embodiments, the therapeutically effective amount is determined by measuring the percent of hemoglobin occupied by the compound, i.e., the percent Hb occupancy. The percent Hb occupancy is a measure of target engagement defined as the percentage of hemoglobin bound by a compound (e.g., Compound I) calculated as the molar concentration of the compound (e.g., Compound I) in RBCs divided by the molar concentration of hemoglobin in RBCs (the mean corpuscular hemoglobin concentration calculated from the hematology panel). The values for concentration of a compound (e.g., Compound I) in RBCs is calculated from the concentrations in whole blood and plasma, and the hematocrit.
In some embodiments, the percent hemoglobin occupancy may be calculated as described herein. In some embodiments, percent hemoglobin occupancy is the molar ratio of Compound I concentration to the Hb concentration in red blood cells.
Some newly enrolled participants in Part A will receive a loading dose regimen of 300 mg of Compound I once daily over the first 14 days. Participants will then receive 200 mg once daily maintenance doses through Week 12.
Based on preliminary pharmacokinetic (PK) analysis of whole blood samples taken from Patient A at day 15 and day 29, Hb occupancy values of 62% and 53%, respectively, were calculated.

T1 sequence (P69905 whole entry): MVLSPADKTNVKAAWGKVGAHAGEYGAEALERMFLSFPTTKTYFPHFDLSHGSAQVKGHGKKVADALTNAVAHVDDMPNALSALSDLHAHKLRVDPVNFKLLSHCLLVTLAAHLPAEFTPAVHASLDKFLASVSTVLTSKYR
T1 sequence (P68871 with tags, fused parts or gaps E7V partner): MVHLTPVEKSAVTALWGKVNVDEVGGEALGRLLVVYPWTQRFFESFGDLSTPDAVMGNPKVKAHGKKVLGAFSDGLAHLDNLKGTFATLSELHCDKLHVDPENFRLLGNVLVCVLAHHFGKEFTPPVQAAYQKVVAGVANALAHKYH

- Hb occupancy (day 15, whole blood, 21600 min): 62%
- Hb occupancy (day 29, whole blood, 41760 min): 53%
Structure (SMILES): O=Cc1c(O)cccc1OC[C@@H]1COCCN1C(=O)c1cccnc1CCO [Compound I, (S)-2-hydroxy-6-((4-(2-(2-hydroxyethyl)nicotinoyl)morpholin-3-yl)methoxy)benzaldehyde]
